The subject of experiment [1] is Quadruplex DNA. Description: Induction of parallel human TERRA G4-quadruplex RNA structural changes up to 20 uM by circular dichroism analysis. Type of experiment: nucleic-acid assay. For orientation: CD spectra are sensitive to the conformation of chiral molecules.
Experiment [2] deals with Quadruplex DNA. Description: Binding affinity to end quartet of (3+1) hybrid structure of human HTR G4-quadruplex DNA up to 20 uM by circular dichroism analysis. In kind it is nucleic-acid assay.
For experiment [3], the system named is Quadruplex DNA. Briefly: Binding affinity to G-quartet terminal of human TERRA G4-quadruplex RNA with parallel topology up to 20 uM by circular dichroism analysis. Type of experiment: nucleic-acid assay.
The subject of experiment [4] is Quadruplex DNA. Description: Induction of parallel human TERT G4-quadruplex DNA structural changes up to 20 uM by circular dichroism analysis. Type of experiment: nucleic-acid assay.
For experiment [5], the target named is Quadruplex DNA. Briefly: Binding affinity to human TERRA G4-quadruplex RNA assessed as dissociation equilibrium binding constant by fluorescence anisotropy titration based fluorescence spectrophotometry. In kind it is nucleic-acid assay. For orientation: In fluorescence polarisation assays a small probe gives low polarisation when free and higher when bound to something large.

The target in experiment [6] is Quadruplex DNA. Description: Binding affinity to biotin-labeled human TERT G4-quadruplex DNA assessed as dissociation equilibrium binding constant by SPR analysis. Type of experiment: nucleic-acid assay. On the technique in general: SPR reads the build-up and loss of mass on a sensor chip optically.
For experiment [7], the target named is Quadruplex DNA. Description: Binding affinity to human TERT G4-quadruplex DNA assessed as dissociation equilibrium binding constant by intrinsic fluorescence titration based fluorescence spectrophotometry. Type of experiment: nucleic-acid assay.
Experiment [8] concerns the target Quadruplex DNA. Description: Binding affinity to biotin-labeled human HTR G4-quadruplex DNA assessed as dissociation equilibrium binding constant by SPR analysis. Type of experiment: nucleic-acid assay.
For experiment [9], the target named is Quadruplex DNA. Description: Binding affinity to human HTR G4-quadruplex DNA assessed as dissociation equilibrium binding constant by intrinsic fluorescence titration based fluorescence spectrophotometry. In kind it is nucleic-acid assay.
Experiment [10] deals with Quadruplex DNA. Briefly: Binding affinity to biotin-labeled human TERRA G4-quadruplex RNA assessed as dissociation equilibrium binding constant by SPR analysis. Type of experiment: nucleic-acid assay.
Experiment [11] concerns Quadruplex DNA. Briefly: Binding affinity to human HTR G4-quadruplex DNA assessed as change in melting temperature by UV-visible spectrophotometry. Type of experiment: nucleic-acid assay.
Experiment [12] concerns Quadruplex DNA. Briefly: Binding affinity to G-quartet terminal of human TERT G4-quadruplex DNA with parallel topology up to 20 uM by circular dichroism analysis. In kind it is nucleic-acid assay.
Experiment [13] has as its system Quadruplex DNA. Briefly: Induction of (3+1) hybrid structural changes of human HTR G4-quadruplex DNA to antiparallel structure at 20 uM by circular dichroism analysis. Type of experiment: nucleic-acid assay.
Experiment [14] relates to DNA. Description: Binding affinity to human TERT hairpin duplex DNA assessed as change in melting temperature by UV-visible spectrophotometry. Type of experiment: nucleic-acid assay.
Experiment [15] relates to Quadruplex DNA. Description: Binding affinity to human TERT G4-quadruplex DNA assessed as change in melting temperature by UV-visible spectrophotometry. Type of experiment: nucleic-acid assay.
The species named for experiment [16] is Homo sapiens. Description: Selectivity index, ratio of Kd for biotin-labeled human HTR G4-quadruplex DNA to Kd for biotin-labeled human TERRA G4-quadruplex RNA by SPR analysis.
Experiment [17] is filed under the species Homo sapiens. Description: Selectivity index, ratio of Kd for human HTR G4-quadruplex DNA to Kd for human TERRA G4-quadruplex RNA by fluorescence spectrophotometry.
The species named for experiment [18] is Homo sapiens. Briefly: Selectivity index, ratio of Kd for biotin-labeled human HTR G4-quadruplex DNA to Kd for biotin-labeled human TERT G4-quadruplex DNA by SPR analysis.
Experiment [19] addresses DNA. Briefly: Binding affinity to biotin-labeled duplex DNA AAAGAACTTT (unknown origin) assessed as dissociation equilibrium binding constant by SPR analysis. Type of experiment: nucleic-acid assay.
Experiment [20] is filed under the species Homo sapiens. Description: Selectivity index, ratio of Kd for human HTR G4-quadruplex DNA to Kd for human TERT G4-quadruplex DNA by intrinsic fluorescence titration based fluorescence spectrophotometry.

Each structure is given as a SMILES string. pKd: −log10 of the molar value. The source made the active and inactive calls. The calls are words filed in the database; no cut-off is given here. Some results are limits rather than exact numbers.

For orientation: pKd means the Kd on a negative log10 scale, so that one unit is a factor of ten. Usually ΔTm stands for the shift of the melting midpoint relative to a reference.

For `CN1CCN(CCCNc2cc3c4c(c(NCCCN5CCN(C)CC5)cc5c4c2C(=O)N(CCCN2CCOCC2)C5=O)C(=O)N(CCCN2CCOCC2)C3=O)CC1`, the result in the experiment with Quadruplex DNA [1] and in the experiment on Quadruplex DNA [4] was inactive. Also, the result with Quadruplex DNA [2], with Quadruplex DNA [3], with Quadruplex DNA [12] and in the experiment on Quadruplex DNA [13] was Active. In addition, the negative logarithm of the Kd (pKd) at Quadruplex DNA [5] is 8.70; at Quadruplex DNA [6], 8.70; on Quadruplex DNA [7], 8.40; on Quadruplex DNA [8], 8.30; on Quadruplex DNA [9], 8.00; on Quadruplex DNA [10] it was 8.52. For the same molecule, the ΔTm in the experiment on Quadruplex DNA [11] is 11 °C; in the experiment with DNA [14], below 2 °C.
Consider `O=C1c2ccc3c4c(c(NCCN5CCCC5)cc(c24)C(=O)N1CCCN1CCOCC1)C(=O)N(CCCN1CCOCC1)C3=O`, for which the result with Quadruplex DNA [1] and in the experiment on Quadruplex DNA [4] was inactive. Moreover, the outcome with Quadruplex DNA [2], with Quadruplex DNA [3], in the experiment with Quadruplex DNA [12] and in the experiment with Quadruplex DNA [13] was Active. For the same molecule, the thermal shift (ΔTm) was 13 °C with Quadruplex DNA [15], 5 °C with Quadruplex DNA [11] and 2 °C in the experiment with DNA [14]. Besides, the figures for the Selectivity Index in the experiment listed under Homo sapiens [16], in the experiment listed under Homo sapiens [17] and in the experiment listed under Homo sapiens [18] were 5, 5 and 7, respectively. Besides, the pKd at Quadruplex DNA [5] is 8.52; at Quadruplex DNA [6], 7.92; on Quadruplex DNA [7] it was 7.80; on Quadruplex DNA [8] it was 7.09; on Quadruplex DNA [9] it was 7.03; on Quadruplex DNA [10], 8.40. Further, the negative logarithm of the Kd (pKd) at DNA [19] was below 7.00.
`O=C1c2cc(-c3ccc(CN4CCCC4)cc3)c3c4c(cc(NCCN5CCCC5)c(c24)C(=O)N1CCCN1CCOCC1)C(=O)N(CCCN1CCOCC1)C3=O` [QN-302]: the outcome with Quadruplex DNA [1] and in the experiment on Quadruplex DNA [4] was inactive. Further, the outcome in the experiment on Quadruplex DNA [2], in the experiment with Quadruplex DNA [3], in the experiment with Quadruplex DNA [12] and in the experiment on Quadruplex DNA [13] was Active. The figures for the thermal shift (ΔTm) in the experiment with Quadruplex DNA [15], in the experiment on Quadruplex DNA [11] and in the experiment with DNA [14] were 18 °C, 10 °C and 2 °C, respectively. Besides, the Selectivity Index in the experiment filed under Homo sapiens [16], in the experiment listed under Homo sapiens [20] and in the experiment listed under Homo sapiens [17] was 5 in each case. Also, the pKd at Quadruplex DNA [5] is 8.70; on Quadruplex DNA [6] it was 8.40; at Quadruplex DNA [7] it was 8.40; at Quadruplex DNA [8] it was 7.55; at Quadruplex DNA [9], 7.54; on Quadruplex DNA [10] it was 8.52. At DNA [19], the negative logarithm of the Kd (pKd) is below 7.00.

Values taken from ChEMBL document CHEMBL4613317, “Substituted Naphthalenediimide Compounds Bind Selectively to Two Human Quadruplex Structures with Parallel Topology” (ACS Med Chem Lett, 2020).
